Source: patent US8580803B2, “Substituted pyrrolo-aminopyrimidine compounds” (ArQule, Inc., priority 2009, dated 2013)

How the values were obtained:
AKT1 = AKT1 (Homo sapiens, UniProt P31749); assay: AKT Kinase Activity Assay (AlphaScreen, crosstide); settings: Average of Akt1 biochemical assay
Method: AKT1 activity was assayed using the GSK3-derived biotinylated peptide substrate, crosstide (biotin-GRPRTSSFAEG), and AlphaScreen™ (Amplified Luminescent Proximity Homogeneous Assay) technology. AKT1 activation was achieved by the addition of the activating kinases PDK1 and MAPKAPK2, lipid vesicles, and ATP. The extent of peptide phosphorylation was determined using a phospho-AKT substrate antibody and acceptor beads conjugated to Protein A and donor beads conjugated to streptavidin that bind to the biotin on the peptide. Excitation of the donor beads converted ambient oxygen to excited singlet oxygen which, when in close proximity to acceptor beads, reacted with acceptor beads resulting in signal amplification.
Test inhibitors and controls (Abbott inhibitor, Merck pre-clinical inhibitor, and Merck clinical inhibitor) were prepared in 10% DMSO at 10-fold the desired final concentration, and added to each well of a reaction plate (Corning 96-well half-area solid white nonbinding surface plate) in a volume of 2.5 μL. […] After a 20 minute pre-incubation at room temperature, the kinase reaction was initiated by the addition of 5 μL of an activation mixture diluted in assay buffer containing biotinylated crosstide, PDK1, MAPKAPK2, DOPS/DOPC, PtdIns(3,4,5)P3, and ATP for final concentrations of 60 nM biotinylated crosstide, 0.1 nM PDK1, 0.7 nM MK2, 5.5 μM DOPS, 5.5 μM DOPC, 0.5 μM PtdIns(3,4,5)P3, and 50 μM ATP. The plates were incubated for 30 minutes at room temperature, and then stopped in the dark by the addition of 10 μL stop/detection mixture prepared in assay buffer containing EDTA, AlphaScreen™ Streptavidin Donor and Protein A Acceptor beads, and phospho-AKT substrate antibody for final concentrations of 10 mM EDTA, 500 ng/well of both AlphaScreen™ Streptavidin Donor beads and Protein A Acceptor beads, and phospho-AKT substrate antibody at a final dilution of 1:350. Assay plates were incubated for 90 minutes at room temperature in the dark, and the plates were read on a Perkin Elmer Envision Multilabel plate reader ([…]).

ACK1 (110-489) = biological target: T1, ACK1 (110-489) (Homo sapiens, UniProt Q07912); assay: ACK1 Activity Assay (AlphaScreen, PYK2-derived peptide); type: biochemical
T1 construct: ACK1 110-489 (12.5 μl) were added to each well
Method: The extent of peptide phosphorylation was determined by using acceptor beads conjugated to phosphotyrosine antibody that recognizes the phosphorylated peptide and donor beads conjugated to streptavidin that binds to the biotin on the peptide. Excitation of the donor beads converted ambient oxygen to excited singlet oxygen which when in close proximity to acceptor beads, reacted with acceptor beads where the signal was amplified.
Test inhibitors and controls (N-(2,6-dimethylphenyl)-4-(2-ethoxyphenoxy)-2-[(4-piperazin-1-ylphenyl)amino]pyrimidine-5-carboxamide) were prepared in 10% DMSO at 10× the desired final concentration. […] After a 20-min incubation at room temperature, the kinase reaction was initiated by the addition of 10 μl of PYK2/ATP mixture. […] The plates were incubated for 60 min at room temperature. The reaction was stopped by the addition of 10 μl stop/detection mixture which contains EDTA (final concentration is 10 mM), AlphaScreen™ Streptavidin Donor beads (final concentration is 500 ng/well) and AlphaScreen™ Phospho-tyrosine (P-Tyr-100) Acceptor beads (final concentration is 500 ng/well) were diluted in assay buffer. This reagent addition step was performed in the dark because the AlphaScreen™ beads are light-sensitive. The plate was incubated for 60 min at room temperature in the dark and the plates were read on the Perkin Elmer Envision Multilabel plate reader ([…]).

T1 sequence (Q07912 110-489, species assumed): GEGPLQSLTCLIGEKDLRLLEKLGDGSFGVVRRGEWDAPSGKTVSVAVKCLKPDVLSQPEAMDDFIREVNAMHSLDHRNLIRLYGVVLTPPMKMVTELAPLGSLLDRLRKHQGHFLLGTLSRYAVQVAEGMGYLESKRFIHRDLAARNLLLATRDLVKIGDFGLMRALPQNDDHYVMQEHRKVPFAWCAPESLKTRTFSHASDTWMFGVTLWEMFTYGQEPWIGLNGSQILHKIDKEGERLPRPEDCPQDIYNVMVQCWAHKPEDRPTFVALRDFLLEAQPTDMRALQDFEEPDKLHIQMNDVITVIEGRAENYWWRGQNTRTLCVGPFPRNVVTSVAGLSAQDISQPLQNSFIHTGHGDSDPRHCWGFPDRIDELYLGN
Chain of AKT1 (P31749 whole entry): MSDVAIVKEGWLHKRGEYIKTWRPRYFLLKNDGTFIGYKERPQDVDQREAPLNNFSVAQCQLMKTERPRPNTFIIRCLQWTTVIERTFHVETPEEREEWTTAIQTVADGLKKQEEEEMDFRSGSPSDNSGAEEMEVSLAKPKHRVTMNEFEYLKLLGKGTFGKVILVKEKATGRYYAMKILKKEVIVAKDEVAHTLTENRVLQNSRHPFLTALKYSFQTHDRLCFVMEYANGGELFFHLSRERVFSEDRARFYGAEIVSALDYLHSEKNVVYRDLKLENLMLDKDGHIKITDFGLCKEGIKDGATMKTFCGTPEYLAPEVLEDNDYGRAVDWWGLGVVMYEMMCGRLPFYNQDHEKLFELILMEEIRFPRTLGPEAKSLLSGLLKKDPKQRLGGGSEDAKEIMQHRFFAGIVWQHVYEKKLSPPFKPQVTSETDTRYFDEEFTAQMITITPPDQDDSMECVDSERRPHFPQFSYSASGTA

| melting point [°C] | IC50 (AKT1) [nM] | IC50 (ACK1 (110-489)) [nM] | SMILES |
| --- | --- | --- | --- |
| 256 to 258 | – | – | CCOC(=O)c1cccc(Nc2ncnc3[nH]cc(C(=O)c4ccccc4)c23)c1 |
| > 300 | – | – | O=C(Nc1ccccc1)c1cccc(Nc2ncnc3[nH]cc(C(=O)c4ccccc4)c23)c1 |
| 288 to 290 | – | – | CC(C)(C)OC(=O)Nc1cccc(Nc2ncnc3[nH]cc(C(=O)c4ccccc4)c23)c1 |
| > 300 | – | – | CNC(=O)c1cccc(Nc2ncnc3[nH]cc(C(=O)c4ccc(Cl)cc4)c23)c1 |
| 280 to 282 | – | – | Nc1cccc(Nc2ncnc3[nH]cc(C(=O)c4ccccc4)c23)c1 |
| > 300 | – | – | O=C(Nc1cccc(Nc2ncnc3[nH]cc(C(=O)c4ccccc4)c23)c1)c1ccccc1 |
| > 300 | – | – | O=C(Cc1cncc(Br)c1)Nc1cccc(Nc2ncnc3[nH]cc(C(=O)c4ccccc4)c23)c1 |
| 255 to 257 | – | – | NCc1ccc(Nc2ncnc3[nH]cc(C(=O)c4ccccc4)c23)cc1 |
| > 300 | – | – | O=C(Nc1ccccc1)Nc1cccc(Nc2ncnc3[nH]cc(C(=O)c4ccccc4)c23)c1 |
| 170 to 173 | – | – | Cn1cc(C(=O)c2ccccc2)c2c(Nc3cccc(N)c3)ncnc21 |
| 180 to 182 | – | – | O=C(NCC1CCCCC1)Nc1cccc(Nc2ncnc3[nH]cc(C(=O)c4ccccc4)c23)c1 |
| 185 to 187 | – | – | CC(C)(C)NC(=O)Nc1cccc(Nc2ncnc3[nH]cc(C(=O)c4ccccc4)c23)c1 |
| 183 to 185 | – | – | CCNC(=O)Nc1cccc(Nc2ncnc3[nH]cc(C(=O)c4ccccc4)c23)c1 |
| 273 to 275 | – | – | O=C(c1ccccc1)c1c[nH]c2ncnc(Nc3cccc(CO)c3)c12 |
| 210 to 212 | – | – | CC(C)(C)OC(=O)NCc1cccc(Nc2ncnc3[nH]cc(C(=O)c4ccccc4)c23)c1 |
| > 300 | – | – | CNC(=O)c1cccc(Nc2ncnc3[nH]cc(C(=O)c4ccccc4C)c23)c1 |
| > 300 | – | – | CNC(=O)c1cccc(Nc2ncnc3[nH]cc(C(=O)c4cccc5ccccc45)c23)c1 |
| > 300 | – | – | CC(=O)Nc1cccc(Nc2ncnc3[nH]cc(C(=O)c4cccc5ccccc45)c23)c1 |
| 263 to 264 | – | – | CC(=O)Nc1ccc(Nc2ncnc3[nH]cc(C(=O)c4ccccc4)c23)cc1 |
| 274 to 280 | – | – | CC(C)(C)OC(=O)Nc1ccc(Nc2ncnc3[nH]cc(C(=O)c4ccccc4)c23)cc1 |
| > 300 | – | – | Nc1cccc(Nc2ncnc3[nH]cc(C(=O)c4ccccc4)c23)n1 |

| melting point [°C] | IC50 (AKT1) [nM] | IC50 (ACK1 (110-489)) [nM] | SMILES |
| --- | --- | --- | --- |
| – | 3090 | – | Cn1cc(CC(=O)Nc2cccc(Nc3ncnc4[nH]cc(C(=O)c5ccccc5)c34)c2)c2ccccc21 [2-(1-methyl-1H-indol-3-yl)-N-(3-{[5-(phenylcarbonyl)-7H-pyrrolo[2,3-d]pyrimidin-4-yl]amino}phenyl)acetamide] |
| – | 94.9 | 666 | CC(=O)NCC(=O)Nc1cccc(Nc2ncnc3[nH]cc(C(=O)c4ccccc4)c23)c1 [2-acetamido-N-(3-((5-benzoyl-7H-pyrrolo[2,3-d]pyrimidin-4-yl)amino)phenyl)acetamide] |
| – | 5120 | – | CNC(=O)c1cccc(Nc2ncnc3[nH]cc(C(=O)c4ccccc4)c23)c1 [3-((5-benzoyl-7H-pyrrolo[2,3-d]pyrimidin-4-yl)amino)-N-methylbenzamide] |
| – | 3000 | 2190 | O=C(O)c1cccc(Nc2ncnc3[nH]cc(C(=O)c4ccccc4)c23)c1 [3-[(5-benzo-7H-pyrrolo[2,3-d]pyrimidin-4-yl)amino]benzoic acid] |
| – | 1440 | 592 | CN1CCC(NC(=O)c2cccc(Nc3ncnc4[nH]cc(C(=O)c5ccccc5)c34)c2)CC1 [3-[(5-benzoyl-7H-pyrrolo[2,3-d]pyrimidin-4-yl)amino]-N-(1-methylpiperidin-4-yl)benzamide] |
| – | 899 | 1200 | O=C(NCCCN1CCCC1)c1cccc(Nc2ncnc3[nH]cc(C(=O)c4ccccc4)c23)c1 [3-[(5-benzoyl-7H-pyrrolo[2,3-d]pyrimidin-4-yl)amino]-N-(3-pyrrolidin-1-ylpropyl)benzamide] |
| – | 676 | 2170 | O=C(NCCCCN1CCCC1)c1cccc(Nc2ncnc3[nH]cc(C(=O)c4ccccc4)c23)c1 [3-[(5-benzoyl-7H-pyrrolo[2,3-d]pyrimidin-4-yl)amino]-N-(4-pyrrolidin-1-ylbutyl)benzamide] |
| – | 674 | 486 | CN(C)CCCNC(=O)c1cccc(Nc2ncnc3[nH]cc(C(=O)c4ccccc4)c23)c1 [3-[(5-benzoyl-7H-pyrrolo[2,3-d]pyrimidin-4-yl)amino]-N-[3-(dimethylamino)propyl]benzamide] |
| – | 264 | 1340 | CC(=O)NCCC(=O)Nc1cccc(Nc2ncnc3[nH]cc(C(=O)c4ccccc4)c23)c1 [3-acetamido-N-(3-((5-benzoyl-7H-pyrrolo[2,3-d]pyrimidin-4-yl)amino)phenyl)propanamide] |
| – | 5130 | 15700 | O=C(Nc1cccc(Nc2ncnc3[nH]cc(C(=O)c4ccccc4)c23)c1)c1ccc(Cl)cc1 [4-chloro-N-(3-{[5-(phenylcarbonyl)-7H-pyrrolo[2,3-d]pyrimidin-4-yl]amino}phenyl)benzamide] |
| – | 1120 | 672 | CN(C)CC(=O)Nc1cccc(Nc2ncnc3[nH]cc(C(=O)c4ccccc4)c23)c1 [N,N-dimethyl-N-(3-{[5-(phenylcarbonyl)-7H-pyrrolo[2,3-d]pyrimidin-4-yl]amino}phenyl)glycinamide] |
| – | 7010 | 19000 | O=C(c1ccccc1)c1c[nH]c2ncnc(Nc3cccc(NC(=O)C4CCCC4)c3)c12 [N-(3-{[5-(phenylcarbonyl)-7H-pyrrolo[2,3-d]pyrimidin-4-yl]amino}phenyl) cyclopentanecarboxamide] |
| – | 288 | 1070 | O=C(CCc1cccnc1)Nc1cccc(Nc2ncnc3[nH]cc(C(=O)c4ccccc4)c23)c1 [N-(3-{[5-(phenylcarbonyl)-7H-pyrrolo[2,3-d]pyrimidin-4-yl]amino}phenyl)-3-pyridin-3-ylpropanamide] |
| – | 1210 | 876 | NC(=O)CCC(=O)Nc1cccc(Nc2ncnc3[nH]cc(C(=O)c4ccccc4)c23)c1 [N-(3-{[5-(phenylcarbonyl)-7H-pyrrolo[2,3-d]pyrimidin-4-yl]amino}phenyl)butanediamide] |
| – | 2170 | 3870 | CC(=O)Nc1cccc(Nc2ncnc3[nH]cc(C(=O)c4ccccc4)c23)c1 [N-{3-[(5-benzoyl-7H-pyrrolo[2,3-d]pyrimidin-4-yl)amino]phenyl}acetamide] |
| – | 1400 | – | O=C(Nc1ccccc1)c1cccc(Nc2ncnc3[nH]cc(C(=O)c4ccccc4)c23)c1 [drawing 239, 3-[(5-benzoyl-7H-pyrrolo[2,3-d]pyrimidin-4-yl)amino]-N-phenylbenzamide] |
| – | 1250 | 415 | Nc1cccc(Nc2ncnc3[nH]cc(C(=O)c4ccccc4)c23)c1 [drawing 248, {4-[(3-aminophenyl)amino]-7H-pyrrolo[2,3-d]pyrimidin-5-yl}(phenyl)methanone] |
| – | 2510 | – | CC(=O)Nc1cccc(Nc2ncnc3c2c(C(=O)c2ccccc2)cn3C)c1 [drawing 273, N-(3-{[7-methyl-5-(phenylcarbonyl)-7H-pyrrolo[2,3-d]pyrimidin-4-yl]amino}phenyl)acetamide] |
| – | 186 | – | NCc1cccc(Nc2ncnc3[nH]cc(C(=O)c4ccccc4)c23)c1 [drawing 278, (4-{[3-(aminomethyl)phenyl]amino}-7H-pyrrolo[2,3-d]pyrimidin-5-yl)(phenyl) methanone] |
| – | 2570 | 338 | Nc1ccc(Nc2ncnc3[nH]cc(C(=O)c4ccccc4)c23)cc1 [{4-[(4-aminophenyl)amino]-7H-pyrrolo[2,3-d]pyrimidin-5-yl}(phenyl)methanone] |
